Source: BindingDB's records for patent US11013745 (Shanghai Institute of Material Medica, Chinese Academy of …, 2021)

Target: T1, Histone-binding protein RBBP4/Histone-lysine N-methyltransferase EZH2/Polycomb protein EED [40-441]/Polycomb protein SUZ12 (Homo sapiens, UniProt O75530+Q09028+Q15022+Q15910)
T1 construct: 40-441
Assay: TR-FRET Assay
Description: The TR-FRET method was used to measure the PRC2 enzyme activity. First, the enzyme was mixed with compounds at different concentrations and incubated for 30 min at room temperature. The biotin-labeled histone H3 peptide substrate and the cofactor S-adenosylmethionine (SAM) were added to initiate the enzymatic reaction. After reaction was performed at room temperature for 4 hour, Acceptor and Donor were added and incubated for half an hour. The multifunctional microplate reader EnVision (Perkin Elmer Inc.) was used to detect the fluorescence signal.

T1 sequence (Q15910 whole entry): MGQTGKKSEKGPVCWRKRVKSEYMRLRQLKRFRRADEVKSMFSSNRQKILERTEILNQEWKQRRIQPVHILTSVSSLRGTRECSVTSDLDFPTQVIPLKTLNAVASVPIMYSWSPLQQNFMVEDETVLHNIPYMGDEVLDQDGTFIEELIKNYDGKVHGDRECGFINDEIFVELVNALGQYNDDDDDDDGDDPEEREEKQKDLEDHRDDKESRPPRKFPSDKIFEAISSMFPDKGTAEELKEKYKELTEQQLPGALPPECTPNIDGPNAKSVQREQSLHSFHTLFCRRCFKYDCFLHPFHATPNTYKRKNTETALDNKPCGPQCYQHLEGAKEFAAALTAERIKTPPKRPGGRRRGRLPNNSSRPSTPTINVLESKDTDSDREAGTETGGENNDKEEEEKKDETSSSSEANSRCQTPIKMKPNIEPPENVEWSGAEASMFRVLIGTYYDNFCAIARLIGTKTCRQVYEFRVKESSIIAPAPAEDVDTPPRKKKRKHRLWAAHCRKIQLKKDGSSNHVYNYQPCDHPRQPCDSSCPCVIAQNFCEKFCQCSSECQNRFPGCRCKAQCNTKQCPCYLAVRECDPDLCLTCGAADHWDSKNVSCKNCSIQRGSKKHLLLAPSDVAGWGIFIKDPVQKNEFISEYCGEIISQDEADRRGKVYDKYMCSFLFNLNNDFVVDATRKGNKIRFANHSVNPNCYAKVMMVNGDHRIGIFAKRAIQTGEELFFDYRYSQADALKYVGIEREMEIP
T1 sequence (Q15022 whole entry): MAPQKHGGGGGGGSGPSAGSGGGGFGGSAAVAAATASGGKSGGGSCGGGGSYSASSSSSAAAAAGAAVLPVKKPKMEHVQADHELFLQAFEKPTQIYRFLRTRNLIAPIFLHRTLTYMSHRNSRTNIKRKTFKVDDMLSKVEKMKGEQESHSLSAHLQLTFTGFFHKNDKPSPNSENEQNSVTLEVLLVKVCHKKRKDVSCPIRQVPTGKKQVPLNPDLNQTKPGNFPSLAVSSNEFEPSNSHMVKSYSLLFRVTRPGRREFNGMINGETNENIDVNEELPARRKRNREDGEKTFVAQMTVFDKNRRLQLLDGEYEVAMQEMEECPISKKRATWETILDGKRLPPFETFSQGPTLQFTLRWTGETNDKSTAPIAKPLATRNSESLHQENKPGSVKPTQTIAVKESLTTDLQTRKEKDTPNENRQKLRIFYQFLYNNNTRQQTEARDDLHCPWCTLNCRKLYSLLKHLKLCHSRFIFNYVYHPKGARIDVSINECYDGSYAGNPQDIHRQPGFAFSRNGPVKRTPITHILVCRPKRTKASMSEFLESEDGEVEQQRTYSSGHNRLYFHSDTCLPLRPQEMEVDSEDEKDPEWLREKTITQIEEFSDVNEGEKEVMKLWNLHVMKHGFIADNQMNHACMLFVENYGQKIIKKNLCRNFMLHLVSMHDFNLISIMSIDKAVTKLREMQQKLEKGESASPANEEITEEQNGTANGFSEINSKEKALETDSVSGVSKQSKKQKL
T1 sequence (Q09028 whole entry): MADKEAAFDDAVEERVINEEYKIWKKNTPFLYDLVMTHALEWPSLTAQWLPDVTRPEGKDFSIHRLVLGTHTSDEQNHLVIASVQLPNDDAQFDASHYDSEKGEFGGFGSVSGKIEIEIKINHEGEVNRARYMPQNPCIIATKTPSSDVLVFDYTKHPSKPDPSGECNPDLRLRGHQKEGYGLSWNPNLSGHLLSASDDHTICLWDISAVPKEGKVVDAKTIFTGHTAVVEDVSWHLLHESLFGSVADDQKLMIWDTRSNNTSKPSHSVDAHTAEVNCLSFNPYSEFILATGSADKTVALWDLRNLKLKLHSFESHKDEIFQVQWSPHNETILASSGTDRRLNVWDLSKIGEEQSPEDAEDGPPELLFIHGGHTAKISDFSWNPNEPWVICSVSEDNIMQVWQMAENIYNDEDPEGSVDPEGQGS
T1 sequence (O75530 40-441): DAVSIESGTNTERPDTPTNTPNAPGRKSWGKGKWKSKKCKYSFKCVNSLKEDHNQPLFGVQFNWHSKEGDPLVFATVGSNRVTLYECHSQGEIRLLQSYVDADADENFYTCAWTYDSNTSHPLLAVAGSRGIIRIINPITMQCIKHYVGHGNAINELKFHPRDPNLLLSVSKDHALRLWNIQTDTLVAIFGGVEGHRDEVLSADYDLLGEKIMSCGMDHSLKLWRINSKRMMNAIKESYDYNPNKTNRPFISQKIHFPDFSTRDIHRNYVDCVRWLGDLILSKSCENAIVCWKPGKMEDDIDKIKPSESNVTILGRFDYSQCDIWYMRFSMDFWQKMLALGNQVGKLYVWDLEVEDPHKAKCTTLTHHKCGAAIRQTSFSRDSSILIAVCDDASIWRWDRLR

## O=C(Nc1ccc(Cl)cc1)N1CC=C(c2cnc(NCc3c(F)ccc4c3CCO4)n3cnnc23)CC1 [US11013745, Compound E-Y38]
  IC50: 58.5 nM

## O=C(Nc1ccc(Cl)cc1)N1CC=C(c2cnc(NCc3ccco3)n3cnnc23)CC1 [US11013745, Compound E-Y27]
  IC50: 92 nM
